This is an account of results in ChEMBL document CHEMBL5465560, “Selectivity Literature for EUbOPEN Chemogenomic Library” (2024).

The target of assay [1] is Glycogen synthase kinase-3 beta (Homo sapiens, UniProt P49841). Nature of the assay: Selectivity interaction (ActivX KiNativ screen (ex vivo kinase selectivity in human PBMCs)) EUB0001619a GSK3B. The format is cell-based. The settings on record: PBMC, at 1 µM.
Assay [2] addresses T1, Serine/threonine-protein kinase BRSK1 (Homo sapiens) (UniProt Q8TDC3).
T1 sequence (whole entry): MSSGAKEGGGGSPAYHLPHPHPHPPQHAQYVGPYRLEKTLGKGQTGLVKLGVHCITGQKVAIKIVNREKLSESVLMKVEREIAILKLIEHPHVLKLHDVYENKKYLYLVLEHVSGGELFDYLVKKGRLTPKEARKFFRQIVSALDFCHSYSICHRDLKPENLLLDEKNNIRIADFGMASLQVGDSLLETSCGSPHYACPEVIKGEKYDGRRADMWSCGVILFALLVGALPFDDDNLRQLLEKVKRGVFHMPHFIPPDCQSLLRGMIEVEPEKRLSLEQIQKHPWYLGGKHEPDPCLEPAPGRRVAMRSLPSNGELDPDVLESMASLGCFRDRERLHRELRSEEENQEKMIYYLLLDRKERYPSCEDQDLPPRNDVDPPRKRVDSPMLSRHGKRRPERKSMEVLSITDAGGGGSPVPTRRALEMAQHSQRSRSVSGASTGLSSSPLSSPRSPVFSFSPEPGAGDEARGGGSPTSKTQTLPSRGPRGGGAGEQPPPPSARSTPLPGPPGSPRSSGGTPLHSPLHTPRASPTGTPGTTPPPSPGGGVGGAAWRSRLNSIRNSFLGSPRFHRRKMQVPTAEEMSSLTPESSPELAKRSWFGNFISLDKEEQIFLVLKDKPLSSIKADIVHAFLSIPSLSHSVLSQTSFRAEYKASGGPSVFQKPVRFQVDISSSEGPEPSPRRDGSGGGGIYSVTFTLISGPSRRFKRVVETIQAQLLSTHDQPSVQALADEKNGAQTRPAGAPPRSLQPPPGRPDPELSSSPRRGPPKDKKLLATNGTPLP
The settings on record: at 10 µM.

The target of assay [3] is Serine/threonine-protein kinase WNK3 (Homo sapiens) (UniProt Q9BYP7). Nature of the assay: Selectivity interaction (ActivX KiNativ screen (kinase selectivity in THP-1 cell lysates)) EUB0000639a WNK3. The format is subcellular. The settings on record: lysate.
The target in assay [4] is RAC-beta serine/threonine-protein kinase (Homo sapiens) (UniProt P31751). The assay can be described thus: Selectivity interaction (Kinase panel (Invitrogen)) EUB0000639a AKT2. The settings on record: at 200 nM.
For assay [5], the target named is Rho-associated protein kinase 1 (Homo sapiens) (UniProt Q13464). The assay can be described thus: Selectivity interaction (Ambit KINOMEscan and KiNATiv profiling in Jurkat cells) EUB0000090b ROCK1. The format is cell-based. The settings on record: at 1 µM.
The target in assay [6] is T2, Muscle, skeletal receptor tyrosine-protein kinase (Homo sapiens) (UniProt O15146).
T2 sequence (whole entry): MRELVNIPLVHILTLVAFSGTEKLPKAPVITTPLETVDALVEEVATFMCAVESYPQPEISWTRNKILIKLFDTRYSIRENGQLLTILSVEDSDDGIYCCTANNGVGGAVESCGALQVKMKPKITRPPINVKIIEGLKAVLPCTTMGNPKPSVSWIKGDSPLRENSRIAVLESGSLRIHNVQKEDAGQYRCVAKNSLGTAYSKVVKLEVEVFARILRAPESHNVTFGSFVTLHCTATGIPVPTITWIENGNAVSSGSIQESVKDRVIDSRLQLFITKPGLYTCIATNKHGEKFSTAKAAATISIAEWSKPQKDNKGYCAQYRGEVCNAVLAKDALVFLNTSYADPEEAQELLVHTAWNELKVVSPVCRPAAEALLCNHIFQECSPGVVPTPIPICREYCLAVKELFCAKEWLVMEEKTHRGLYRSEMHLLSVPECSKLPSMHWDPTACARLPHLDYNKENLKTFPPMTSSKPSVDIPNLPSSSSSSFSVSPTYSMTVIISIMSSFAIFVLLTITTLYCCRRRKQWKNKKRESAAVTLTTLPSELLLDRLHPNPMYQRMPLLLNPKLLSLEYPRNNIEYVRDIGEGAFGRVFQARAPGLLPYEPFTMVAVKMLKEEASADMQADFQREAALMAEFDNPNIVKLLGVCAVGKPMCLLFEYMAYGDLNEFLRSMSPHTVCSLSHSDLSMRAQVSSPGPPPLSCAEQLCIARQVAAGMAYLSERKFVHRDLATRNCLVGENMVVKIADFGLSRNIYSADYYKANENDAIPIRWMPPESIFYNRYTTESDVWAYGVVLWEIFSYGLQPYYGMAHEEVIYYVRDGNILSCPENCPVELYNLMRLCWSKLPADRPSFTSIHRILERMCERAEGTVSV
Nature of the assay: Selectivity interaction (KinomeScan (DiscoverX)) EUB0001049a MUSK. The settings on record: at 1 µM.

Assay [7] deals with 5-hydroxytryptamine receptor 1B (Homo sapiens) (UniProt P28222). The assay can be described thus: Selectivity interaction (Panel of kinases, GPCRs, ion channels and transporters (enzymatic assay)) EUB0000223bCl HTR1B.
In assay [8] the target is Ribosomal protein S6 kinase alpha-5 (Homo sapiens) (UniProt O75582). The assay can be described thus: Selectivity interaction (KinomeScan (DiscoverX)) EUB0001868a RPS6KA5. Conditions: at 1 µM.
In assay [9] the target is Serine/threonine-protein kinase pim-1 (Homo sapiens, UniProt P11309). Nature of the assay: Selectivity interaction (KinomeScan (DiscoverX)) EUB0000655a PIM1. Conditions: at 10 µM.
Assay [10] concerns the target Bromodomain adjacent to zinc finger domain protein 2B (Homo sapiens) (UniProt Q9UIF8). The assay can be described thus: Selectivity interaction (Bromodomain panel (DSF asssay)) EUB0000270b BAZ2B.
Assay [11] has as its target Mitogen-activated protein kinase 7 (Homo sapiens) (UniProt Q13164). The assay can be described thus: Selectivity interaction (KinomeScan (DiscoverX)) EUB0000092b MAPK7. The settings on record: at 10 µM.
Assay [12] concerns the target Tyrosine-protein kinase FRK (Homo sapiens) (UniProt P42685). Nature of the assay: Selectivity interaction (KinomeScan (DiscoverX)) EUB0001079a FRK. Conditions: at 1 µM.
Assay [13] addresses Proto-oncogene tyrosine-protein kinase ROS (Homo sapiens) (UniProt P08922). Nature of the assay: Selectivity interaction (KinomeScan (DiscoverX)) EUB0001079a ROS1. The settings on record: at 1 µM.
For assay [14], the target named is Leukocyte tyrosine kinase receptor (Homo sapiens, UniProt P29376). Nature of the assay: Selectivity interaction (KinomeScan (DiscoverX)) EUB0000229b LTK. Conditions: at 10 µM.

Each structure is given as a SMILES string.

Chain of Serine/threonine-protein kinase WNK3 (Homo sapiens) (Q9BYP7 whole entry): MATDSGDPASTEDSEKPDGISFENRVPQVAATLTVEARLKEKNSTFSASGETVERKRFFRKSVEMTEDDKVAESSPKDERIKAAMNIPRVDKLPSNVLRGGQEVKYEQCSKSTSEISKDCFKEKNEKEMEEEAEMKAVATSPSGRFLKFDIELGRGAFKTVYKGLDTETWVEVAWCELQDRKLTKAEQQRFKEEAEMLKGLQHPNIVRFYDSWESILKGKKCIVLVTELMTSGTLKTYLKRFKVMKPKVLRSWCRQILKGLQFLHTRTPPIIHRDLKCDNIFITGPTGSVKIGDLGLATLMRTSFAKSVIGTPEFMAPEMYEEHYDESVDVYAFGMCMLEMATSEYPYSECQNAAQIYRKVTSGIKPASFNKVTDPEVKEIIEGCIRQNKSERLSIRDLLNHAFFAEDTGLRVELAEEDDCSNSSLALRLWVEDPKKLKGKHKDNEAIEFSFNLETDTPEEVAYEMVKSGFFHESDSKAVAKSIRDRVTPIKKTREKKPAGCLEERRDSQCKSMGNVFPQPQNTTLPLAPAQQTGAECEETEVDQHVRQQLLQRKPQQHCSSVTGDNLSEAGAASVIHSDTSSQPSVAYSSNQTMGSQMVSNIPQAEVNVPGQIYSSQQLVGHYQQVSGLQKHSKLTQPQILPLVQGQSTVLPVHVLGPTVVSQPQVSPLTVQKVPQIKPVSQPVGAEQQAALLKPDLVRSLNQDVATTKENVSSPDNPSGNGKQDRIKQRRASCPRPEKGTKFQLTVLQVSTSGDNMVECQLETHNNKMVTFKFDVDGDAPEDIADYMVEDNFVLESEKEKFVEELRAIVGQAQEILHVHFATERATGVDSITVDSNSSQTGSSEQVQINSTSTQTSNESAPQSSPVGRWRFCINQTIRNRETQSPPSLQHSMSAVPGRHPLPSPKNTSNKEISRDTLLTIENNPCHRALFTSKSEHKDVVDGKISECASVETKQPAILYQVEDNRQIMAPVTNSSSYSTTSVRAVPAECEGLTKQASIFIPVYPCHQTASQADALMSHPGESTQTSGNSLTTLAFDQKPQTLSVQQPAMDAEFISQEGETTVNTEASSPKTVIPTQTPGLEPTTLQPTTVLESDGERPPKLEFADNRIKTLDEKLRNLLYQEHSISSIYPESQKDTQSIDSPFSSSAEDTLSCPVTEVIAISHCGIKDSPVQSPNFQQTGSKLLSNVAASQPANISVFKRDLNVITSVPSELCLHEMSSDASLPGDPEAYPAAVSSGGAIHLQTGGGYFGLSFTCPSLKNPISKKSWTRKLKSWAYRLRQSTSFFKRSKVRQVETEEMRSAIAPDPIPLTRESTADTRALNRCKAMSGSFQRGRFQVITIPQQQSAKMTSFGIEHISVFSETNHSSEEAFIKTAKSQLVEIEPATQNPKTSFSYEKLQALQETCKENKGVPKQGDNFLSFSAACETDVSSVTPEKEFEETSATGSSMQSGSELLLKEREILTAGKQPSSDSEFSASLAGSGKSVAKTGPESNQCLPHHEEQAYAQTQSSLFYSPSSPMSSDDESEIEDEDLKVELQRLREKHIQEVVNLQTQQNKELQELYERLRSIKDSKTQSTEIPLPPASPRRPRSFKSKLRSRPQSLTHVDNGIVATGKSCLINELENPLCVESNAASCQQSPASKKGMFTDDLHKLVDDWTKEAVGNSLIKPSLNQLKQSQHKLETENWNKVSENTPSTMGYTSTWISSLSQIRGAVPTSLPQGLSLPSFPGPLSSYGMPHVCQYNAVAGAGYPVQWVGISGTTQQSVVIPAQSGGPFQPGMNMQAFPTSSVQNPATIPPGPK
Chain of Mitogen-activated protein kinase 7 (Homo sapiens) (Q13164 2-816 limits assumed): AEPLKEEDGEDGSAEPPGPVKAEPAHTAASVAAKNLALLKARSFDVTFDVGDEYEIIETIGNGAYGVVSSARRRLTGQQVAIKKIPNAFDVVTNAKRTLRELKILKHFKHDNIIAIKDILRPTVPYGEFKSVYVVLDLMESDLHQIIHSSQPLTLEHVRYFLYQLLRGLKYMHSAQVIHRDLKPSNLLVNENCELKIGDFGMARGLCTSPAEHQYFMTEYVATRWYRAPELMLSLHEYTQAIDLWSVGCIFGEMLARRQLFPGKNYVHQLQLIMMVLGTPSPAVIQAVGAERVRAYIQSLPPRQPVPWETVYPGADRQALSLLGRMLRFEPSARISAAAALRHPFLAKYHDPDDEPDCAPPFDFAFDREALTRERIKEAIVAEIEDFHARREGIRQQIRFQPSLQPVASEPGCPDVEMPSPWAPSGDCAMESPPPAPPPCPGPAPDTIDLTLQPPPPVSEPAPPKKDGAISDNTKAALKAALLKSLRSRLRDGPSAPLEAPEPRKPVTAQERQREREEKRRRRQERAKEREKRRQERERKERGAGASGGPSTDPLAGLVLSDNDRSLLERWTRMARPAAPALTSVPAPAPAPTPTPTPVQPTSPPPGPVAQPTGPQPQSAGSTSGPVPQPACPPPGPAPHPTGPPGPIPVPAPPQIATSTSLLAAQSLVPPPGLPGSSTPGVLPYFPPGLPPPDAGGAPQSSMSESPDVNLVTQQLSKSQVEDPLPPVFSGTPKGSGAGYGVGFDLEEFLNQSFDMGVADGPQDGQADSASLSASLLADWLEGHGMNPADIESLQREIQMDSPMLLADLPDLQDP
Chain of Tyrosine-protein kinase FRK (Homo sapiens) (P42685 whole entry): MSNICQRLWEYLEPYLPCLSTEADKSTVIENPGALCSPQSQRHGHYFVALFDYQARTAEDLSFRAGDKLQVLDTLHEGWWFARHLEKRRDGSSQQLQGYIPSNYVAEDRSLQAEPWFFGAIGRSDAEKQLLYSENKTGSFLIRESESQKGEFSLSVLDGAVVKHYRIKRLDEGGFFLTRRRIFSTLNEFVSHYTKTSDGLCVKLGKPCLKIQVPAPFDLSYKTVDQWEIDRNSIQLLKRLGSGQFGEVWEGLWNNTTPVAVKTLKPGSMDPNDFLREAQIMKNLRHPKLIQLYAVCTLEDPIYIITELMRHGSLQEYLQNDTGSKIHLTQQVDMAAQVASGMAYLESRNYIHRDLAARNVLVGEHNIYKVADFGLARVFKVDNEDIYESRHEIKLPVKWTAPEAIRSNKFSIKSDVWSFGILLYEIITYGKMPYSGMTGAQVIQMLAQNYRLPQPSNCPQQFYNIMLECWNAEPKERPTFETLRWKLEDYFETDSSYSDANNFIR
Chain of 5-hydroxytryptamine receptor 1B (Homo sapiens) (P28222 whole entry): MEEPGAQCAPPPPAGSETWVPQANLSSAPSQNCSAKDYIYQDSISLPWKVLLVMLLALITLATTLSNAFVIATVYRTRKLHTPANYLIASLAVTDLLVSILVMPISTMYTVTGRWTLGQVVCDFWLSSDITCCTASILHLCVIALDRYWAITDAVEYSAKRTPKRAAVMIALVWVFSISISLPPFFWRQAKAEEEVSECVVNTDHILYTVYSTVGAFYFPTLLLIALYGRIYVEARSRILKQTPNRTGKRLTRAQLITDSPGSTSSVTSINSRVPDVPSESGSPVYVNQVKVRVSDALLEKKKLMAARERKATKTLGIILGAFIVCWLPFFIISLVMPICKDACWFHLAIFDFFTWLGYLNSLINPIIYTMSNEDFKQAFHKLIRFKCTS
Chain of Leukocyte tyrosine kinase receptor (P29376 whole entry): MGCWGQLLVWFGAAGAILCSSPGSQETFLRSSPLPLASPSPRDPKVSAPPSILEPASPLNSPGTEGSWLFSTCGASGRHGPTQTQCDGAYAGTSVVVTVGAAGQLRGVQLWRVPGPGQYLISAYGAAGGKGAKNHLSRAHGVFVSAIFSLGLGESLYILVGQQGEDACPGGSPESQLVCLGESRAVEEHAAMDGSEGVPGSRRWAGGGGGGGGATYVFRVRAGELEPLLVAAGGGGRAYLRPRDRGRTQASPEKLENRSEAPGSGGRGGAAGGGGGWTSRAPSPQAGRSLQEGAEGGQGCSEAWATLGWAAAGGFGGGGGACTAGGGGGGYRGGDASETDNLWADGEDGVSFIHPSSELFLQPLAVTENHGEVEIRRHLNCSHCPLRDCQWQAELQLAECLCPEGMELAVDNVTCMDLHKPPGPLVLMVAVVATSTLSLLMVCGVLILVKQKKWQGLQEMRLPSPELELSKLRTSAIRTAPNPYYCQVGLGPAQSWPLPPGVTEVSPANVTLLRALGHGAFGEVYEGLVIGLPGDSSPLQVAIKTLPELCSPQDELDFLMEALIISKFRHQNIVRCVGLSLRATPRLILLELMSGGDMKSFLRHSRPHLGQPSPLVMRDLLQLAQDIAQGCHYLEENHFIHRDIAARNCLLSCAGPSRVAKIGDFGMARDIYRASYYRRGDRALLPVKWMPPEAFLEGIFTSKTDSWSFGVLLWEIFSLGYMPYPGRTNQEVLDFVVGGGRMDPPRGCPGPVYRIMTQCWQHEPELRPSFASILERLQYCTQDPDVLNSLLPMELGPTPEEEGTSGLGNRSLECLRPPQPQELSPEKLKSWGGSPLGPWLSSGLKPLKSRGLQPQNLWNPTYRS
Chain of Serine/threonine-protein kinase pim-1 (P11309 whole entry, looked up, the tested form may be a part): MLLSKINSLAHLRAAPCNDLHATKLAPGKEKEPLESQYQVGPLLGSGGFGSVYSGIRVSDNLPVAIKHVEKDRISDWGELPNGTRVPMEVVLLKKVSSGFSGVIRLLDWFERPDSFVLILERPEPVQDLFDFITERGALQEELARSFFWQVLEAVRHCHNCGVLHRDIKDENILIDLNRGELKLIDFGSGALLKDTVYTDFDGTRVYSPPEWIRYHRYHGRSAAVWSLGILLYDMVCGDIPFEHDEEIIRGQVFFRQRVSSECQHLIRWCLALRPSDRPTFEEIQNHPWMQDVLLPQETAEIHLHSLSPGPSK

Take `N#Cc1cccc(-c2c[nH]c3ncnc(N4CCOCC4)c23)c1`: in assay [1], the % of inhibition was 7%. For the compound `Cc1cc([C@@H](C)Nc2ccccc2C(=O)O)c2nc(N3CCOCC3)cc(=O)n2c1` [AZD-6482], the % of control in assay [2] is 99%. For `CC[C@@H]1[C@H](F)C(=O)N[C@@H]1COc1nccc2cc(C(N)=O)c(OC)cc12` [ZIMLOVISERTIB], the % of inhibition was 3.3% in assay [3] (at 0.01 µM); -7.4% in [3] (at 0.04 µM); -12% in [3] (at 0.2 µM); -7.7% in [3] (at 1 µM); -14.5% in [3] (at 5 µM); 4.03% in assay [4]. In [5], `CN(C)C/C=C/C(=O)Nc1ccc(C(=O)N2CCCC(Nc3ncc(Cl)c(-c4c[nH]c5ccccc45)n3)C2)cc1` (stereo not drawn) yielded a % of control of 90%. For the compound `COc1cc(Nc2nc(C)cc(-c3cnn4nc(OC)ccc34)n2)cc(C(F)(F)F)c1`, the % of control in assay [6] worked out at 100%. In turn, `COc1cc(C(=O)N2CC[C@@H](O)[C@@H](N)C2)cc2nc(-c3cc4ccccc4n3CC3CC3)n(C)c12` registered a pXC50 in assay [7] of 4.7 M.

Take `Cc1cc(-c2ccnc(Nc3cnn(C)c3)n2)ccc1CNC(=O)N1CC(OC(C)C)C1`: the % of control in [8] was determined as 42%. In the case of `CN(C)CCOc1ccc(-c2nc(-c3ccncc3)c(-c3ccc4c(c3)CC/C4=N\O)[nH]2)cc1`, in assay [9], the % of control was 86%.

In assay [10], `Cc1cc(CN)cc(C)c1-c1ncn(C)c1-c1cncn1C` had a dTM of -0.9 K. Turning to `CCC(=O)N1CCN(c2ccc(-n3c(=O)ccc4cnc5ccc(-c6cnc7ccccc7c6)cc5c43)cc2C(F)(F)F)CC1`, the % of control in [11] amounted to 100%. Consider `Nc1cnc(N2CCc3cc(S(=O)(=O)Nc4c(F)cc(Cl)cc4F)cc(N4CCCC4=O)c32)nc1` [TP-020n], for which the % of control in assay [12] came out at 62%; in [13] it was 99%.

In turn, `COc1cc(N(C)c2ccnc3ccc(C(F)(F)F)cc23)cc(OC)c1OC` registered a % binding in assay [14] of 96%.
